The text below walks through data of patent publication US6500959B1, “Pyrrolidine derivatives and processes for preparing same” (GPI NIL Holdings, Inc., priority 1995, dated 2002).

The structures appear in SMILES notation. Entries after “also recorded” stand apart in the source; their conditions may differ. Like-named read-outs stand apart in the source and are kept apart here.

The subject of test [1] is chick dorsal root ganglia. The test is described as follows: Chick dorsal root ganglion cultures and neurite outgrowth. The test is classed as cell-based. The following applies: read-out: ED50, neurite outgrowth. The text has this: Forty-eight hours later, the number of neurite with a length greater than one DRG explant was quantitated. The number of neurites expressed in untreated DRG's was subtracted from the neurite number of Example 17—treated samples to yield Example 17—dependent specific neurite outgrowth.
Forty-eight hours later, the number of neurite with a length greater than one DRG explant was quantitated. The number of neurites expressed in untreated DRG's was subtracted form the neurite number of Example 17—treated samples to yield Example 17—dependent specific neurite outgrowth. Quantitative dose-dependent neurite outgrowth elicited by Example 17 is presented.
Dorsal root ganglia were dissected from chick embryos of ten day gestation. Whole ganglion explants were cultured on thin layer Matrigel-coated 12 well plates with Liebovitz L15 plus high glucose media supplemented with 2 mM glutamine and 10% fetal calf serum, and also containing 10 μM cytosine β-D arabinofuranoside (Ara C) at 37° C. in an environment containing 5% CO2. Twenty-four hours later, the DRGs were treated with various concentrations of nerve growth factor, immunophilin ligands or combinations of NFG plus drugs. Forty-eight hours after drug treatment, the ganglia were visualized under phase contrast or Hoffman Modulation contrast with a Zeiss Axiovert inverted microscope. Photomicrographs of the explants were made, and neurite outgrowth was quantitated. Neurites longer than the DRG diameter were counted as positive, with total number of neurites quantitated per each experimental condition. Three to four DRGs are cultured per well, and each treatment was performed in duplicate.

A further test has as its system sciatic nerve. The test is described as follows: Sciatic nerve axotomy (crush), axon number and myelination. The test is classed as in vivo, Sprague-Dawley rats. From the text: FIGS. 3A-3D are photomicrographs of rat […] sections. […] Sciatic nerves of 150 g male Sprague-Dawley rats were crushed at the level of the hips. […] Animals were sacrificed, sciatic nerves removed and nerve segments 2 mm distal to the crush site were sectioned and stained with Holmes silver stain (to assess axon number) and Luxol fast blue (to assess remyelination). The micrographs show sciatic nerve sections of sham operated rats, vehicle-treated lesioned animals. […] Six-week old male Sprague-Dawley rats were anesthetized, and the sciatic nerve exposed and crushed, at the level of the hip, by forceps. Test compounds or vehicle were administered subcutaneously just prior to the lesion and daily for the following 18 days. Sections of the sciatic nerve were stained with Holmes silver stain to quantify the number of axons, and Luxol fast blue to quantify the level of myelination. […] “Sham” denotes control animals that received vehicle but were not lesioned; “Vehicle” denotes animals that were lesioned and received only vehicle (i.e., no drug).

For the next test, the target named is FKBP (Homo sapiens, UniProt P62942). Kind of test: Ki test procedure: inhibition of peptidyl-prolyl isomerase (rotamase) activity, chymotrypsin-coupled assay. The test is classed as biochemical. To be noted: apparent Ki. The procedure:
The inhibition of this reaction caused by the addition of different concentrations of inhibitor is determined, and the data is analyzed as a change in first-order rate constant as a function of inhibitor concentration to yield the apparent Ki values.
In a plastic cuvette are added […] of ice cold assay buffer (25 mM HEPES, pH 7.8, 100 mM NaCl), […] of FKBP (2.5 mM in 10 mM Tris-Cl pH 7.5, 100 mM NaCl, 1 mM dithiothreitol), […] of chymotrypsin (50 mg/ml in 1 mM HCl) and […] of test compound at various concentrations in dimethyl sulfoxide.

Where [2] appears, read: 30 mg/kg s.c., just prior to lesion and daily for 18 days.
[3] abbreviates: chick DRG explants, 48 h after drug treatment.

Sequence of FKBP (P62942 whole entry): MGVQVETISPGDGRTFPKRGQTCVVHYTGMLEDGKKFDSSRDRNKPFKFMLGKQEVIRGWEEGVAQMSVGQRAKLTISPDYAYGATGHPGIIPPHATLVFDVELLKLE

`CCC(C)(C)C(=O)C(=O)N1CCC[C@H]1C(=O)OCCCc1ccccc1` [Example 1, 3-phenyl-1-propyl (2S)-1-(3,3-dimethyl-1,2-dioxopentyl)-2-pyrrolidinecarboxylate]: the EC50 in test [1] (Gallus gallus, 48 h) was 53 nM. Moreover, in the test with sciatic nerve (setting [2]), the “axon number, decrease as compared to non-lesioned control” value came to 5% and the “degree of myelination, decrease as compared to control” value is 50%. In addition, the “neuronal regeneration, appearance of sciatic nerve sections” value in the test with sciatic nerve (30 mg/kg s.c., compared with sham and vehicle-treated lesioned animals) is “striking similarity to the sham treated animals; also recorded: promotes neuronal regeneration following sciatic nerve lesions”. Further, the “Axon Number (% Control)” value in the test with sciatic nerve (lesioned rats, 30 mg/kg s.c. daily, Holmes silver stain) is given as 100 % Control. Moreover, the “Myelin Level” value in the test with sciatic nerve (lesioned rats, 30 mg/kg s.c. daily, Luxol fast blue, Sham = 100) stood at 50.

Regarding `CCC(C)(C)C(=O)C(=O)N1CCC[C@H]1C(=O)OC/C=C/c1ccccc1` [Example 2, 3-phenyl-1-prop-2-(E)-enyl (2S)-1-(3,3-dimethyl-1,2-dioxopentyl)-2-pyrrolidinecarboxylate], the EC50 in test [1] (Gallus gallus, 48 h) was determined as 105 nM. Besides, the Ki on FKBP was found to be 125 nM.

With `CCC(C)(C)C(=O)C(=O)N1CCC[C@H]1C(=O)OCCCc1cc(OC)c(OC)c(OC)c1` [Example 3, 3-(3,4,5-trimethoxyphenyl)-1-propyl (2S)-1-(3,3-dimethyl-1,2-dioxopentyl)-2-pyrrolidine-carboxylate], the EC50 in test [1] (Gallus gallus, 48 h) turned out to be 149 nM.

As to `CCC(C)(C)C(=O)C(=O)N1CCC[C@H]1C(=O)OC/C=C/c1cc(OC)c(OC)c(OC)c1` [Example 4, 3-(3,4,5-trimethoxyphenyl)-1-prop-2-(E)-enyl (2S)-1-(3,3-dimethyl-1,2-dioxopentyl)-2-pyrrolidine carboxylate], the EC50 in test [1] (Gallus gallus, 48 h) was 190 nM. Moreover, the Ki on FKBP worked out at 65 nM.

In the case of `CCC(C)(C)C(=O)C(=O)N1CCC[C@H]1C(=O)OCCCc1ccc2c(c1)OCO2` [Example 5], the EC50 in test [1] (setting [3]) was 10 nM. Besides, at FKBP, the Ki was 170 nM.

Turning to `CCC(C)(C)C(=O)C(=O)N1CCC[C@H]1C(=O)OC/C=C/c1ccc2c(c1)OCO2` [Example 6, 3-(4,5-methylenedioxyphenyl)-1-prop-2-(E)-enyl (2S)-1-(3,3-dimethyl-1,2-dioxopentyl)-2-pyrrolidinecarboxylate], in test [1] (Gallus gallus, 48 h), the EC50 is 75 nM. Also, the Ki at FKBP was found to be 160 nM.

`CCC(C)(C)C(=O)C(=O)N1CCC[C@H]1C(=O)OC/C=C/C1CCCCC1` [Example 8, 3-cyclohexyl-1-prop-2-(E)-enyl (2S)-1-(3,3-dimethyl-1,2-dioxopentyl)-2-pyrrolidinecarboxylate]: the Ki on FKBP came to 600 nM.

For `O=C(C(=O)N1CCC[C@H]1C(=O)OCCCc1ccccc1)c1ccco1` [Example 10, 3-phenyl-1-propyl (2S)-1-(1,2-dioxo-2-[2-furanyl])ethyl-2-pyrrolidinecarboxylate], in test [1] (Gallus gallus, 48 h), the EC50 was 0.46 nM. In addition, the Ki at FKBP is 4000 nM.

For the compound `O=C(C(=O)N1CCC[C@H]1C(=O)OCCCc1ccccc1)c1cccs1` [Example 11, 3-phenyl-1-propyl (2S)-1-(1,2-dioxo-2-[2-thienyl])ethyl-2-pyrrolidinecarboxylate], the EC50 in test [1] (Gallus gallus, 48 h) amounted to 0.015 nM. The Ki on FKBP came to 92 nM.

As to `O=C(C(=O)N1CCC[C@H]1C(=O)OCCCc1ccccc1)c1nccs1` [Example 12, 3-phenyl-1-propyl (2S)-1-(1,2-dioxo-2-[2-thiazolyl])ethyl-2-pyrrolidinecarboxylate], at FKBP, the Ki stood at 100 nM.

With `O=C(C(=O)N1CCC[C@H]1C(=O)OCCCc1ccccc1)c1ccccc1` [Example 13, 3-phenyl-1-propyl (2S)-1-(1,2-dioxo-2-phenyl)ethyl-2-pyrrolidinecarboxylate], on FKBP, the Ki was found to be 1970 nM.

As to `CCC(C)(C)C(=O)C(=O)N1CCC[C@H]1C(=O)OCCCc1cc(OC)ccc1OC` [Example 14, 3-(2,5-dimethoxyphenyl)-1-propyl (2S)-1-(3,3-dimethyl-1,2-dioxopentyl)-2-pyrrolidine-carboxylate], the EC50 in test [1] (Gallus gallus, 48 h) was found to be 2 nM.

For `CCC(C)(C)C(=O)C(=O)N1CCC[C@H]1C(=O)OC/C=C/c1cc(OC)ccc1OC` [Example 15, 3-(2,5-dimethoxyphenyl)-1-prop-2-(E)-enyl (2S)-1-(3,3-dimethyl-1,2-dioxopentyl)-2-pyrrolidine-carboxylate], the EC50 in test [1] (Gallus gallus, 48 h) came out at 0.8 nM. For the same compound, the Ki at FKBP is 450 nM.

Take `CCC(C)(C)C(=O)C(=O)N1CCC[C@H]1C(=O)OCCc1cc(OC)c(OC)c(OC)c1` [Example 16, 2-(3,4,5-trimethoxyphenyl)-1-ethyl (2S)-1-(3,3-dimethyl-1,2-dioxopentyl)-2-pyrrolidine-carboxylate]: the EC50 in test [1] (Gallus gallus, 48 h) is 0.015 nM.

With `CCC(C)(C)C(=O)C(=O)N1CCC[C@H]1C(=O)OCCCc1ccccn1` [Example 18, 3-(2-Pyridyl)-1-propyl (2S)-1-(3,3-dimethyl-1,2-dioxopentyl)-2-pyrrolidinecarboxylate], in test [1] (Gallus gallus, 48 h), the EC50 came out at 30 nM.

Consider `CCC(C)(C)C(=O)C(=O)N1CCC[C@H]1C(=O)OCCCc1ccncc1` [Example 19, 3-(4-Pyridyl)-1-propyl (2S)-1-(3,3-dimethyl-1,2-dioxopentyl)-2-pyrrolidinecarboxylate], for which the EC50 in test [1] (Gallus gallus, 48 h) turned out to be 6 nM.

Take `O=C(C(=O)N1CCC[C@H]1C(=O)OC(CCc1ccccc1)c1ccccc1)C1CCCCC1` (stereo partly drawn) [Example 20, 3-phenyl-1-phenyl-1-propyl (2S)-1-(2-cyclohexyl-1,2-dioxoethyl)-2-pyrrolidinecarboxylate]: in test [1] (setting [3]), the EC50 is 0.13 nM. For the same compound, the Ki on FKBP was found to be 82 nM.

As to `CC(C)(C)C(=O)C(=O)N1CCC[C@H]1C(=O)OCCCc1ccccc1` [Example 21, 3-phenyl-1-propyl (2S)-1-(2-tert-butyl-1,2-dioxoethyl)-2-pyrrolidinecarboxylate], the EC50 in test [1] (Gallus gallus, 48 h) stood at 0.025 nM.

With `O=C(CCC1CCCCC1)C(=O)N1CCC[C@H]1C(=O)OCCCc1ccccc1` [Example 22, 3-phenyl-1-propyl (2S)-1-(2-cyclohexyl-ethyl-1,2-dioxoethyl)-2-pyrrolidinecarboxylate], in test [1] (Gallus gallus, 48 h), the EC50 worked out at 0.66 nM.

On to `O=C(CCC1CCCCC1)C(=O)N1CCC[C@H]1C(=O)OCCCc1cccnc1` [Example 23, 3-(3-pyridyl)-1-propyl (2S)-1-(2-cyclohexylethyl-1,2-dioxoethyl)-2-pyrrolidinecarboxylate], for which the EC50 in test [1] (Gallus gallus, 48 h) was found to be 1100 nM.

For `CC(C)(C)C(=O)C(=O)N1CCC[C@H]1C(=O)OCCCc1cccnc1` [Example 24, 3-(3-pyridyl)-1-propyl (2S)-1-(2-tert-butyl-1,2-dioxoethyl)-2-pyrrolidinecarboxylate], the EC50 in test [1] (Gallus gallus, 48 h) is 0.014 nM.

As for `CCC(C)(C)C(=O)C(=O)N1CCC[C@H]1C(=O)OCCC(c1ccccc1)c1ccccc1` [Example 25, 3,3-diphenyl-1-propyl (2S)-1-(3,3-dimethyl-1,2-dioxopentyl)-2-pyrrolidinecarboxylate], the EC50 in test [1] (Gallus gallus, 48 h) was 0.5 nM.

For the compound `O=C(C(=O)N1CCC[C@H]1C(=O)OCCCc1cccnc1)C1CCCCC1` [Example 26, 3-(3-pyridyl)-1-propyl (2S)-1-(2-cyclohexyl-1,2-dioxoethyl)-2-pyrrolidinecarboxylate], the EC50 in test [1] (Gallus gallus, 48 h) came out at 2 nM.

For the compound `O=C(C(=O)N1CCC[C@H]1C(=O)OCCCc1cccnc1)c1cccs1` [Example 27, 3-(3-Pyridyl)-1-propyl (2S)-N-([2-thienyl]glyoxyl)pyrrolidinecarboxylate], in test [1] (Gallus gallus, 48 h), the EC50 was 500 nM. Besides, the Ki at FKBP was found to be 1000 nM.

In the case of `CC(C)(C)C(=O)C(=O)N1CCC[C@H]1C(=O)OCCC(c1ccccc1)c1ccccc1` [Example 28, 3,3-Diphenyl-1-propyl (2S)-1-(3,3-dimethyl-1,2-dioxobutyl)-2-pyrrolidinecarboxylate], the EC50 in test [1] (Gallus gallus, 48 h) turned out to be 0.5 nM.

Take `O=C(C(=O)N1CCC[C@H]1C(=O)OCCC(c1ccccc1)c1ccccc1)C1CCCCC1` [Example 29, 3,3-Diphenyl-1-propyl (2S)-1-cyclohexyl glyoxyl-2-pyrrolidinecarboxylate]: the EC50 in test [1] (Gallus gallus, 48 h) was determined as 10 nM. Moreover, the Ki on FKBP came out at 20 nM.

For `O=C(C(=O)N1CCC[C@H]1C(=O)OCCC(c1ccccc1)c1ccccc1)c1cccs1` [Example 30, 3,3-Diphenyl-1-propyl (2S)-1-(2-thienyl) glyoxyl-2-pyrrolidinecarboxylate], the EC50 in test [1] (Gallus gallus, 48 h) was found to be 100 nM. For the same compound, at FKBP, the Ki was 150 nM.
